Measured values from patent US7981878B2, “Tumor treatment with gliotoxin derivatives” (priority 2005, dated 2011).

How the values were obtained:
[1] = tested on: SH1 (hairy cell carcinoma); assay: Apoptosis FACS in leukaemia cell line SH1; format: cell-based; settings: SH1, 0.2 μM gliotoxin, 24 h
Protocol: (§1) FIG. 7: (A) The apoptotic activity of gliotoxin on further B-CLL patient samples (CLL4-CLL8) is illustrated. The (non-Notch2-associated) leukaemia cell lines (or the leukaemia cell lines not characterised by ligand-independent Notch2 fragments) Jurkat (T-ALL), SH1 (hairy cell carcinoma), RL-7 and K562 (CML) are resistant to a treatment with 0.2 μM (corresponding to 60 ng/ml) of gliotoxin. Cells were incubated for 24 h+/−gliotoxin, and the percentage of apoptotic cells (probidium-iodide+/annexinV+) was determined by means of FACS analysis. In none of the 4 non-Notch2-associated cell lines indicated, the application of 0.2 μM of gliotoxin led to a significant induction of apoptosis within 24 hours. The cytotoxic effect of Gliotoxin correlates with the Notch2 activity in leukemias. (B) Corresponding EMSA showing the activity of Notch2 in B-CLL cells and in leukemic cell lines (Jurkat, SH1, RL7, and K562).

[2] = tested on: K562 (CML); assay: Apoptosis FACS in leukaemia cell line K562; format: cell-based; settings: K562, 0.2 μM gliotoxin, 24 h
Protocol: as §1

[3] = tested on: Huh7 (hepatocellular carcinoma); assay: Cell count analysis Huh7; format: cell-based, human; settings: Huh7, 200 nM gliotoxin, 72 h
Protocol: (§2) FIG. 8 a-d: Effects of gliotoxin on cell counts of various human tumour cell lines in vitro. Cell counts of a) hepatocellular carcinoma cell lines HepG2, Huh7, SNU398, Hep3b, HeLa (cervix) and the cholangiocarcinoma cell line NEC as well as b) the pancreatic cancer cell line Panc-1 and the melanoma cell lines d) MelJuso, Meljuso-Bcl-2 (+) and 607B after 72 h treatment with 200 nM gliotoxin; c-d) Cell count dose range experiments with c) pancreatic carcinoma cell lines Panc-1 and MiaPaCa as well as melanoma cell lines MelJuso, 518A2 and 607B using 25, 50 100 and 200 nM gliotoxin for 24 h. All data are given relative to control ±standard deviation.
(§3) Tumour cells were seeded at a density of 10,000 cells/well in 24-well plates. 24 h after seeding, medium containing gliotoxin was added to yield desired concentrations of gliotoxin. At time points indicated, culture medium was removed by suction. Adherent cells were washed with DPBS (Cambrex, Verviers, Belgium) and incubated with trypsin (Gibco) at 37° C. Detached cells were transferred to test tubes containing Cellpack isotonic fluid (Sysmex Europe, Bornbarch, Germany) and counted with a Coulter Z1 electronic cell counter (Beckman Coulter, Bedford, UK).

[4] = tested on: Panc-1 (pancreas carcinoma); assay: Cell count analysis Panc-1; format: cell-based, human
Protocol: as §2, §3

[5] = tested on: Meljuso-wt (melanoma); assay: Cell count analysis Meljuso-wt; format: cell-based, human
Protocol: as §2, §3

[6] = tested on: 607B (melanoma); assay: Cell count analysis 607B; format: cell-based, human
Protocol: as §2, §3

[7] = tested on: Panc-1 (pancreatic cancer); assay: Apoptosis flow cytometry (Annexin V / 7-AAD) Panc-1; format: cell-based, human; settings: Panc-1, 200 nM gliotoxin, 24 h
Protocol: (§4) FIG. 10 a-b: Effects of gliotoxin on Notch2 regulation and apoptosis. The melanoma cell line 518A2 (A) and the pancreatic cancer cell line Panc-1 (B) were treated with 200 nM gliotoxin or vehicle control for 24 h Notch2 activity was analysed by band shift assay. Apoptosis was measured as annexin V and 7-AAD double positivity by FACS. Data are given as percentage of apoptotic cells ±standard deviation.
Tumour cells were seeded at a density of 50,000 cells/well in 6 well plates. 24 h after seeding, medium containing gliotoxin was added to yield desired concentrations of gliotoxin. After further 24 h cells were harvested, counted and washed twice with PBS. Then, 100,000 cells were resuspended in 100 μl binding buffer and stained with Annexin V-PE and 7-AAD (both Becton Dickinson, N.J., USA) according to manufacturer's recommendations. After 20 minutes incubation time at room temperature in the dark, 400 μl binding buffer was added and immediately analyzed on a FACScalibur flow cytometer using CellQuest software (both Becton Dickinson, N.J., USA)

[8] = tested on: Notch2; assay: Notch2 activity band shift assay in Panc-1; format: cell-based, human; settings: Panc-1, 200 nM gliotoxin, 24 h
Protocol: as §4
500,000 cells were seeded on 12 cm^2 plates for 24 h and then treated with 200 nM gliotoxin. At the time points as indicated cells were harvested and immediately frozen at −80° C. The band shift assay was performed as described for B-CLL.

[9] = mice and rats; cited from earlier work
[10] = tested on: U937 (macrophage cell line); settings: cited from earlier work
[11] = tested on: HCT-15; settings: cited from earlier work
[12] = tested on: mouse cell line P388; settings: cited from earlier work

CN1C(=O)[C@]23CC4=CC=C[C@H](O)[C@H]4N2C(=O)[C@@]1(CO)SS3 [gliotoxin, [3R-(3α,5aβ,6β,10aα)]-2,3,5a,6-tetrahydro-6-hydroxy-3-(hydroxymethyl)-2-methyl-10H-3,10a-epi-dithiopyrazino[1,2-a]indol-1,4-dion]
induction of apoptosis (probidium-iodide+/annexinV+) [1]: resistant | induction of apoptosis (probidium-iodide+/annexinV+) [2]: resistant | mean reduction of cell numbers compared to vehicle treated controls [3]: 31% | response ([4]; Panc-1, 0.2 μM (60 ng/ml)): ~100% | effect on cell count ([4]; Panc-1, 200 nM gliotoxin, 72 h): very effective | cytotoxicity in dose range experiment (cell count) ([4]; Panc-1, 25, 50, 100 and 200 nM, 24 h): clear dose dependent cytotoxicity | response ([5]; MelJuso (−BCL2), 0.2 μM (60 ng/ml)): ~100% | cytotoxicity in dose range experiment (cell count) ([5]; Meljuso, 25, 50, 100 and 200 nM, 24 h): clear dose dependent cytotoxicity | effect on cell count ([5]; Meljuso-wt, 200 nM gliotoxin, 72 h): very effective | effect on cell count ([6]; 607B, 200 nM gliotoxin, 72 h): very effective | cytotoxicity in dose range experiment (cell count) ([6]; 607B, 25, 50, 100 and 200 nM, 24 h): clear dose dependent cytotoxicity | apoptotic cells (annexin V and 7-AAD double positive) [7]: 47% | Notch2 activity (band shift assay) [8]: only partly inhibited | LD50 [9]: 25 to 50 mg/kg | IC50 with regard to cell viability [10]: 0.014 µg/mL | IC50 with regard to cell viability [11]: 0.039 µg/mL | IC50 with regard to cell viability [12]: 5,8 ng/ml
